In the test the test system is RAW 264.7 cells. The test can be described thus: Quantitative cell-permeability of FITC-labeled aMTD- or rPeptide-fused CRA recombinant proteins (flow cytometry). The class given is cell-based. To be noted: for Relative Ratio to aMTD AVE: cell-permeability of rPeptide-fused CRA recombinant protein relative to average of 240 aMTDs. From the text:
The aMTDs and rPeptides were fluorescently labeled and compared based on the critical factors for cell-permeability by using flow cytometry and confocal laser scanning microscopy (FIGS. 5 to 8). The cellular uptake of the peptide-fused non-functional cargo recombinant proteins could quantitatively be evaluated in flow cytometry, while confocal laser scanning microscopy allows intracellular uptake to be assessed visually. The analysis included recombinant proteins fused to a negative control [rP38] that has opposite characteristics (hydrophilic and aromatic sequence: […] NO: 952)) to the aMTDs (hydrophobic and aliphatic sequences). Relative cell-permeability (relative fold) of aMTDs to the negative control was also analyzed (Table 23 and FIG. 9). […] RAW 264.7 cells were treated with 10 μM FITC-labeled recombinant proteins for 1 hour at 37° C., washed three times with cold PBS, treated with 0.25% tripsin/EDTA (Sigma-Aldrich, St. Louis, Mo.) for 20 minutes at 37° C. to remove cell-surface bound proteins. Cell-permeability of these recombinant proteins were analyzed by flow cytometry (Guava, Millipore, Darmstadt, Germany) using the FlowJo cytometric analysis software (FIGS. 5 to 6).

Where [1] appears, read: cell-permeability of aMTD-fused CRA recombinant protein relative to negative control (A: rP38).
[2] abbreviates: cell-permeability of aMTD-fused CRA recombinant protein relative to reference CPP (B: MTM12).
[3] abbreviates: cell-permeability of aMTD-fused CRA recombinant protein relative to reference CPP (C: MTD85).
[4] abbreviates: 10 μM FITC-labeled, 1 hour, 37° C., RAW 264.7 cells.
Where [5] appears, read: cell-permeability relative to negative control rP38 (A type), aMTD-fused CRA recombinant protein, 10 μM FITC-labeled, 1 hour, 37° C., RAW 264.7 cells.
Setting [6] is: cell-permeability relative to reference CPP MTD85 (C type), aMTD-fused CRA recombinant protein, 10 μM FITC-labeled, 1 hour, 37° C., RAW 264.7 cells.
Setting [7] is: cell-permeability relative to reference CPP MTM12 (B type), aMTD-fused CRA recombinant protein, 10 μM FITC-labeled, 1 hour, 37° C., RAW 264.7 cells.

Turning to “312 (VALLAPAVVVAP; Amino acid Sequence of aMTD912) [compound 312]”, under setting [1], the “Relative Ratio (Fold) A” value was 19.9 Fold. Also, the “Relative Ratio (Fold) B” value under setting [2] came to 13.3 Fold. The “Relative Ratio (Fold) C” value under setting [3] is on record as 6.7 Fold.
Taken in the same sequence, the figures for “321 (IVAVALPALAVP; Amino acid Sequence of aMTD321) [compound 321]” were 97.8 Fold, 65.2 Fold and 32.9 Fold.
On to “322 (VVAIVLPALAAP; Amino acid Sequence of aMTD322) [compound 322]”, for which the “Relative Ratio (Fold) A” value under setting [1] was determined as 17.6 Fold. Under setting [2], the “Relative Ratio (Fold) B” value stood at 11.7 Fold. For the same substance, under setting [3], the “Relative Ratio (Fold) C” value amounted to 5.9 Fold.
“323 (IVAVALPVALAP; Amino acid Sequence of aMTD323) [compound 323]”: the “Relative Ratio (Fold) A” value under setting [1] was 19.1 Fold. Also, under setting [2], the “Relative Ratio (Fold) B” value turned out to be 12.8 Fold. The “Relative Ratio (Fold) C” value under setting [3] is on record as 6.4 Fold.
With “324 (IVAVALPAALVP; Amino acid Sequence of aMTD324) [compound 324]”, the “Relative Ratio (Fold) A” value runs as follows: under setting [1], 10.3 Fold; (relative cell-permeability of aMTD vs reference A (not defined)) 10.3 Fold. The “Relative Ratio (Fold) B” value is, setting by setting: under setting [2], 6.9 Fold; (relative cell-permeability of aMTD vs reference CPP B: MTM12) 6.9 Fold. The “Relative Ratio (Fold) C” value by setting is: under setting [3], 3.5 Fold; (relative cell-permeability of aMTD vs reference CPP C: MTD85) 3.5 Fold.
With “325 (IVAVALPAVALP; Amino acid Sequence of aMTD325) [compound 325]”, the “Relative Ratio (Fold) A” value under setting [1] is recorded as 11.7 Fold. Besides, the “Relative Ratio (Fold) B” value under setting [2] is listed as 7.8 Fold. Moreover, the “Relative Ratio (Fold) C” value under setting [3] is 4.0 Fold.
As for “329 (LPVLVPVVPVVP; Amino acid Sequence of rPeptide ID 329) [compound 329]”, the “Relative Ratio to aMTD AVE” value under setting [4] was 0.23.
Take “341 (IVAVALPAVLAP; Amino acid Sequence of aMTD341) [compound 341]”: under setting [1], the “Relative Ratio (Fold) A” value was 16.4 Fold. In addition, the “Relative Ratio (Fold) B” value under setting [2] stood at 10.9 Fold. Besides, under setting [3], the “Relative Ratio (Fold) C” value is recorded as 5.5 Fold.
On to “342 (VIVALAPAVLAP; Amino acid Sequence of aMTD342) [compound 342]”, for which, under setting [1], the “Relative Ratio (Fold) A” value is 12.7 Fold. Besides, the “Relative Ratio (Fold) B” value under setting [2] amounted to 8.5 Fold. Further, the “Relative Ratio (Fold) C” value under setting [3] was 4.3 Fold.
Turning to “343 (IVAVALPALVAP; Amino acid Sequence of aMTD343) [compound 343]”, under setting [1], the “Relative Ratio (Fold) A” value is listed as 19.4 Fold. Moreover, the “Relative Ratio (Fold) B” value under setting [2] is 12.9 Fold. Under setting [3], the “Relative Ratio (Fold) C” value is on record as 6.5 Fold.
“345 (ALLIVAPVAVAP; Amino acid Sequence of aMTD345) [compound 345]”: under setting [1], the “Relative Ratio (Fold) A” value was determined as 8.9 Fold. Further, the “Relative Ratio (Fold) B” value under setting [2] is listed as 5.9 Fold. Besides, the “Relative Ratio (Fold) C” value under setting [3] came to 3.0 Fold.
The like results for “361 (AVVIVAPAVIAP; Amino acid Sequence of aMTD361) [compound 361]” were, in that order, 16.0 Fold, 10.7 Fold and 5.4 Fold.
As to “364 (LVAAVAPALIVP; Amino acid Sequence of aMTD364) [compound 364]”, the “Relative Ratio (Fold) A” value under setting [5] is reported as 6.5 Fold. Under setting [6], the “Relative Ratio (Fold) C” value was determined as 2.2 Fold. For the same substance, the “Relative Ratio (Fold) B” value under setting [7] was determined as 4.3 Fold.
As for “365 (AVIVVAPALLAP; Amino acid Sequence of aMTD365) [compound 365]”, the “Relative Ratio (Fold) A” value under setting [1] was found to be 9.3 Fold and the “Relative Ratio (Fold) A” value under setting [5] was 9.3 Fold. The “Relative Ratio (Fold) B” value under setting [2] was 6.2 Fold and the “Relative Ratio (Fold) B” value under setting [7] was 6.2 Fold. Besides, the “Relative Ratio (Fold) C” value runs as follows: under setting [3], 3.1 Fold; under setting [6], 3.1 Fold.
Turning to “382 (AAALVIPAILAP; Amino acid Sequence of aMTD382) [compound 382]”, under setting [1], the “Relative Ratio (Fold) A” value is on record as 17.7 Fold. Besides, under setting [2], the “Relative Ratio (Fold) B” value came to 11.8 Fold. In addition, the “Relative Ratio (Fold) C” value under setting [3] was 6.0 Fold.
“383 (VIVALAPALLAP; Amino acid Sequence of aMTD383) [compound 383]”: under setting [1], the “Relative Ratio (Fold) A” value was 11.6 Fold. Also, the “Relative Ratio (Fold) B” value under setting [2] worked out at 7.7 Fold. Also, the “Relative Ratio (Fold) C” value under setting [3] turned out to be 3.9 Fold.
The like results for “384 (VIVAIAPALLAP; Amino acid Sequence of aMTD384) [compound 384]” were, in that order, 14.0 Fold, 9.4 Fold and 4.7 Fold.
The like results for “385 (IVAIAVPALVAP; Amino acid Sequence of aMTD385) [compound 385]” were, in that order, 38.8 Fold, 25.9 Fold and 13.1 Fold.
Regarding “390 (VPLLVPVVPVVP; Amino acid Sequence of rPeptide ID 390) [compound 390]”, the “Relative Ratio to aMTD AVE” value under setting [4] worked out at 0.41.
Regarding “391 (VVAIVLPAVAAP; Amino acid Sequence of aMTD381) [compound 391]”, under setting [1], the “Relative Ratio (Fold) A” value turned out to be 11.5 Fold. Also, the “Relative Ratio (Fold) B” value under setting [2] is given as 7.7 Fold. The “Relative Ratio (Fold) C” value under setting [3] came to 3.9 Fold.
As to “401 (AALAVIPAAILP; Amino acid Sequence of aMTD401) [compound 401]”, the “Relative Ratio (Fold) A” value under setting [1] was determined as 10.6 Fold. For the same substance, the “Relative Ratio (Fold) B” value under setting [2] is 7.1 Fold. For the same substance, under setting [3], the “Relative Ratio (Fold) C” value was 3.6 Fold.
With “402 (ALAAVIPAAILP; Amino acid Sequence of aMTD402) [compound 402]”, the “Relative Ratio (Fold) A” value under setting [5] was 6.4 Fold. In addition, the “Relative Ratio (Fold) C” value under setting [6] was determined as 2.2 Fold. For the same substance, the “Relative Ratio (Fold) B” value under setting [7] stood at 4.3 Fold.
As to “403 (AAALVIPAAILP; Amino acid Sequence of aMTD403) [compound 403]”, the “Relative Ratio (Fold) A” value under setting [1] is given as 25.2 Fold. For the same substance, the “Relative Ratio (Fold) B” value under setting [2] is 16.8 Fold. In addition, the “Relative Ratio (Fold) C” value under setting [3] was 8.5 Fold.
For the substance “404 (LAAAVIPAAILP; Amino acid Sequence of aMTD404) [compound 404]”, under setting [1], the “Relative Ratio (Fold) A” value is on record as 18.9 Fold. Further, the “Relative Ratio (Fold) B” value under setting [2] is 12.6 Fold. Moreover, the “Relative Ratio (Fold) C” value under setting [3] is given as 6.4 Fold.
Take “405 (LAAAVIPVAILP; Amino acid Sequence of aMTD405) [compound 405]”: under setting [1], the “Relative Ratio (Fold) A” value was determined as 22.2 Fold. Under setting [2], the “Relative Ratio (Fold) B” value was 14.8 Fold. Also, the “Relative Ratio (Fold) C” value under setting [3] is reported as 7.5 Fold.
Consider “421 (AAILAAPLIAVP; Amino acid Sequence of aMTD421) [compound 421]”, for which the “Relative Ratio (Fold) A” value under setting [5] was 6.7 Fold. The “Relative Ratio (Fold) C” value under setting [6] is 2.3 Fold. The “Relative Ratio (Fold) B” value under setting [7] stood at 4.5 Fold.
“422 (VVAILAPLLAAP; Amino acid Sequence of aMTD422) [compound 422]”: the “Relative Ratio (Fold) A” value under setting [1] is 19.6 Fold. Moreover, the “Relative Ratio (Fold) B” value under setting [2] is listed as 13.1 Fold. Besides, the “Relative Ratio (Fold) C” value under setting [3] turned out to be 6.6 Fold.
For “424 (AVVVAAPVLALP; Amino acid Sequence of aMTD424) [compound 424]”, the “Relative Ratio (Fold) A” value under setting [5] stood at 6.6 Fold. In addition, the “Relative Ratio (Fold) C” value under setting [6] is listed as 2.2 Fold. Moreover, under setting [7], the “Relative Ratio (Fold) B” value is on record as 4.4 Fold.
In the case of “425 (AVVAIAPVLALP; Amino acid Sequence of aMTD425) [compound 425]”, under setting [1], the “Relative Ratio (Fold) A” value stood at 9.4 Fold. Further, the “Relative Ratio (Fold) B” value under setting [2] is given as 6.3 Fold. In addition, under setting [3], the “Relative Ratio (Fold) C” value turned out to be 3.2 Fold.
Turning to “426 (AAALAIPLAIIP; Amino acid Sequence of rPeptide ID 426) [compound 426]”, under setting [4], the “Relative Ratio to aMTD AVE” value stood at 0.40.
With “442 (ALAALVPAVLVP; Amino acid Sequence of aMTD442) [compound 442]”, the “Relative Ratio (Fold) A” value under setting [1] came to 20.4 Fold. Besides, the “Relative Ratio (Fold) B” value under setting [2] is 12.6 Fold. For the same substance, under setting [3], the “Relative Ratio (Fold) C” value is 6.9 Fold.
As for “443 (ALAALVPVALVP; Amino acid Sequence of aMTD443) [compound 443]”, the “Relative Ratio (Fold) A” value under setting [1] is on record as 8.0 Fold. Besides, the “Relative Ratio (Fold) B” value under setting [2] was 5.3 Fold. The “Relative Ratio (Fold) C” value under setting [3] was 2.7 Fold.
For the substance “444 (LAAALVPVALVP; Amino acid Sequence of aMTD444) [compound 444]”, the “Relative Ratio (Fold) A” value under setting [1] came out at 8.1 Fold. Under setting [2], the “Relative Ratio (Fold) B” value worked out at 5.4 Fold. Besides, the “Relative Ratio (Fold) C” value under setting [3] was determined as 2.7 Fold.
Consider “445 (ALAALVPALVVP; Amino acid Sequence of aMTD445) [compound 445]”, for which the “Relative Ratio (Fold) A” value under setting [5] was found to be 6.9 Fold. Also, the “Relative Ratio (Fold) C” value under setting [6] was 2.3 Fold. Moreover, the “Relative Ratio (Fold) B” value under setting [7] is listed as 4.6 Fold.

The values above are taken from patent publication US10385103B2, “Cell-permeable (ICP)-SOCS3 recombinant protein and uses thereof” (CELLIVERY THERAPEUTICS, INC., priority 2014, dated 2019).
